In ChEMBL document CHEMBL5120818, “Discovery and Biosynthesis of Antimicrobial Phenethylamine Alkaloids from the Marine Flavobacterium Tenacibaculum discolor sv11” (2022):

Legend:
Format in all cases: functional
Bacillus subtilis = assay: Antibacterial activity against Bacillus subtilis DSM10 measured after 18 hrs by micro broth dilution assay
[1] = test system: Mycolicibacterium smegmatis; assay: Antibacterial activity against Mycobacterium smegmatis ATCC607 measured after 48 hrs by BacTiter-glo assay
Listeria monocytogenes = assay: Antibacterial activity against Listeria monocytogenes DSM20600 measured after 48 hrs by BacTiter-glo assay
Staphylococcus aureus = assay: Antibacterial activity against Staphylococcus aureus ATCC25923 measured after 18 hrs by micro broth dilution assay
Escherichia coli [2] = assay: Antibacterial activity against Escherichia coli ATCC25922 measured after 18 hrs by micro broth dilution assay
Escherichia coli [3] = assay: Antibacterial activity against delta tolC deficient Escherichia coli ATCC25922 measured after 18 hrs by micro broth dilution assay
Candida albicans = assay: Antifungal activity against Candida albicans FH2173 measured after 48 hrs by BacTiter-glo assay
Aspergillus flavus = assay: Antifungal activity against Aspergillus flavus ATCC9170 measured after 24 hrs by BacTiter-glo assay
Caenorhabditis elegans = assay: Antihelminthic activity against Caenorhabditis elegans N2 assessed as reduction in worm motility measured after 2 days by binocular dissecting microscopy; conditions: N2, 48 h, time 2 day

Row | Structure (SMILES) | MIC (Bacillus subtilis) | MIC [1] | MIC (Listeria monocytogenes) | MIC (Staphylococcus aureus) | MIC (Escherichia coli [2]) | MIC (Escherichia coli [3]) | MIC (Candida albicans) | MIC (Aspergillus flavus) | MIC (Caenorhabditis elegans)
1 | CCCc1c(CC)cc(CC)c[n+]1CCc1ccccc1 | > 64 µg/mL | > 64 µg/mL | > 64 µg/mL | > 64 µg/mL | > 64 µg/mL | > 64 µg/mL | > 64 µg/mL | > 64 µg/mL | > 64 µg/mL
2 | CCCc1n(CCc2ccccc2)c(C)c(CC)[n+]1CCc1ccccc1 | 32 µg/mL | 8 µg/mL | > 64 µg/mL | 64 µg/mL | > 64 µg/mL | > 64 µg/mL | > 64 µg/mL | > 64 µg/mL | > 64 µg/mL
3 | CCCc1n(CCc2ccccc2)c(C)c(C)[n+]1CCc1ccccc1 | 16 µg/mL | 8 µg/mL | > 64 µg/mL | 64 µg/mL | > 64 µg/mL | > 64 µg/mL | > 64 µg/mL | > 64 µg/mL | > 64 µg/mL

Molecules with a lower MIC (Bacillus subtilis), results first:

Row | MIC (Bacillus subtilis) | MIC [1] | MIC (Listeria monocytogenes) | MIC (Staphylococcus aureus) | MIC (Escherichia coli [2]) | MIC (Escherichia coli [3]) | MIC (Candida albicans) | MIC (Aspergillus flavus) | MIC (Caenorhabditis elegans) | Structure (SMILES)
4 | 1 µg/mL | 0.5 µg/mL | 0.5 µg/mL | 0.5 µg/mL | 64 µg/mL | 8 µg/mL | 4 µg/mL | 1 µg/mL | 32 µg/mL | CCCc1cc2n(CCc3ccccc3)cc(-c3ccccc3)cc-2[n+]1CCc1ccccc1
5 | 4 µg/mL | 8 µg/mL | 4 µg/mL | 8 µg/mL | > 64 µg/mL | > 64 µg/mL | 16 µg/mL | 16 µg/mL | 64 µg/mL | CCCC1=[N+](CCc2ccccc2)C(C)(CCC(=O)c2ccccc2N)C(NCCc2ccccc2)=C1 (centres undefined)
6 | 4 µg/mL | 4 µg/mL | 2 µg/mL | 4 µg/mL | > 64 µg/mL | 64 µg/mL | 8 µg/mL | 8 µg/mL | > 64 µg/mL | CCCc1c(C)cn(CCc2ccccc2)c2cc(CCC)[n+](CCc3ccccc3)c1-2
